# Reference: US20230287044A1, “NOVEL ANTIBACTERIAL PEPTIDE AND USE THEREOF” (priority 2020, published 2023)
# Square brackets hold non-standard residues; d marks the D form. Ends that are not written are not given here. Peptide text beside a SMILES is read from it. * marks the point of attachment. NH(β-GlcNAc) = CC(=O)N[C@@H]1[C@@H](O)[C@H](O)[C@@H](CO)O[C@H]1N*; Hexanoyl = CCCCCC(=O)*
# Tests used:
# [1] = tested on: MRPA (P. aeruginosa) CCARM 2180; assay type: cell-based, Pseudomonas aeruginosa; conditions: CCARM 2180, 18 h
# Description: (§1) The minimum growth inhibitory concentrations of the antibacterial peptides of the present invention weremeasured, and the results are shown in Table 3 below.
# (§2) Specifically, the strains were grown in CAMHB until the midlog phase, and then diluted with PBS buffer to 1× 10^6 cfu/ml to prepare the bacterial solution, and the antibacterial peptide prepared in Example 1above was diluted with CAMHB to 80 µM, 40 µM, 20 µM, 10 µM, 5 µM, 2.5 µM, 1.25 µM and 0.63 µM, and then the bacterial solution was treated with the same volume.
# (§3) The results are the average value of three independent experiments.
# [2] = tested on: MRAB (A. baumannii) ATCC BAA 1605; assay type: cell-based, Acinetobacter baumannii; conditions: ATCC BAA 1605, 18 h
# Description: as §1, §2, §3
# [3] = tested on: MRSA (S. aureus) KCCM 40510; assay type: cell-based, Staphylococcus aureus; conditions: KCCM 40510, 18 h
# Description: as §1, §2, §3
# [4] = tested on: VRE (E. faecalis) ATCC 51575; assay type: cell-based, Enterococcus faecalis; conditions: ATCC 51575, 18 h
# Description: as §1, §2, §3
molecule,measurement,setting,value
"CC(C)[C@@H](NC(=O)[C@@H](Cc1c[nH]c2ccccc12)NC(=O)[C@@H](Cc1c[nH]c2ccccc12)NC(=O)[C@H](NC(=O)[C@@H](Cc1c[nH]c2ccccc12)NC(=O)[C@@H](CCCNC(=N)N)NC(=O)[C@@H](CCCNC(=N)N)NC(=O)[C@H](N)CCCNC(=N)N)C(C)C)C(=O)N[C@H](Cc1c[nH]c2ccccc12)C(=O)N[C@H](Cc1c[nH]c2ccccc12)C(N)=O [KSH79, rrrwvwwvww] (H-[dR][dR][dR][dW][dV][dW][dW][dV][dW][dW]-NH2; N-terminus assumed)",MIC MRPA (P. aeruginosa) CCARM 2180,[1],2.5 µM
same,MIC MRAB (A. baumannii) ATCC BAA 1605,[2],10 µM
same,MIC MRSA (S. aureus) KCCM 40510,[3],1.25 µM
same,MIC VRE (E. faecalis) ATCC 51575,[4],1.25 µM
WLVYVWLRKKR-NH2 [LSH2],MIC MRPA (P. aeruginosa) CCARM 2180,[1],20 µM
same,MIC MRAB (A. baumannii) ATCC BAA 1605,[2],1.25 µM
same,MIC MRSA (S. aureus) KCCM 40510,[3],5 µM
same,MIC VRE (E. faecalis) ATCC 51575,[4],5 µM
"CC(C)[C@@H](NC(=O)[C@@H](Cc1c[nH]c2ccccc12)NC(=O)[C@@H](CCCNC(=N)N)NC(=O)[C@@H](CCCNC(=N)N)NC(=O)[C@H](N)CCCNC(=N)N)C(=O)N[C@H](Cc1c[nH]c2ccccc12)C(=O)N[C@@H](C(=O)N[C@@H](C(=O)N[C@@H](C(=O)N[C@H](Cc1c[nH]c2ccccc12)C(N)=O)C(C)C)C(C)C)C(C)C [KSH82, rrrwvwvvvw] (H-[dR][dR][dR][dW][dV][dW][dV][dV][dV][dW]-NH2; N-terminus assumed)",MIC MRPA (P. aeruginosa) CCARM 2180,[1],10 µM
same,MIC MRAB (A. baumannii) ATCC BAA 1605,[2],10 µM
same,MIC MRSA (S. aureus) KCCM 40510,[3],1.25 µM
same,MIC VRE (E. faecalis) ATCC 51575,[4],1.25 µM
WVVWVVYRKKR-NH2 [LSH7],MIC MRPA (P. aeruginosa) CCARM 2180,[1],>40 µM
same,MIC MRAB (A. baumannii) ATCC BAA 1605,[2],5 µM
same,MIC MRSA (S. aureus) KCCM 40510,[3],20 µM
same,MIC VRE (E. faecalis) ATCC 51575,[4],20 µM
WLLWLYARKKR-NH2 [LSH9],MIC MRPA (P. aeruginosa) CCARM 2180,[1],40 µM
same,MIC MRAB (A. baumannii) ATCC BAA 1605,[2],5 µM
same,MIC MRSA (S. aureus) KCCM 40510,[3],10 µM
same,MIC VRE (E. faecalis) ATCC 51575,[4],10 µM
"CC[C@@H](C)[C@@H](NC(=O)[C@@H](Cc1c[nH]c2ccccc12)NC(=O)[C@@H](CCCNC(=N)N)NC(=O)[C@@H](CCCNC(=N)N)NC(=O)[C@@H](CCCNC(=N)N)NC(=O)[C@@H](N)CC(=O)N[C@@H]1O[C@H](CO)[C@@H](O)[C@H](O)[C@H]1NC(C)=O)C(=O)N[C@H](Cc1c[nH]c2ccccc12)C(=O)N[C@@H](C(=O)N[C@H](CC(C)C)C(=O)N[C@H](Cc1c[nH]c2ccccc12)C(=O)N[C@H](CCCCN)C(N)=O)C(C)C [KSH47, Nrrrwiwvlwk] (H-D(NH(β-GlcNAc))[dR][dR][dR][dW][dI][dW][dV][dL][dW][dK]-NH2; N-terminus assumed)",MIC MRPA (P. aeruginosa) CCARM 2180,[1],10 µM
same,MIC MRAB (A. baumannii) ATCC BAA 1605,[2],1.25 µM
same,MIC MRSA (S. aureus) KCCM 40510,[3],2.5 µM
same,MIC VRE (E. faecalis) ATCC 51575,[4],2.5 µM
"CCCCCC(=O)NCCCC[C@@H](N)C(=O)N[C@H](Cc1c[nH]c2ccccc12)C(=O)N[C@H](CC(C)C)C(=O)N[C@H](CC(C)C)C(=O)N[C@H](Cc1c[nH]c2ccccc12)C(=O)N[C@@H](C(=O)NCC(=O)N[C@H](CC(C)C)C(=O)N[C@H](CCCNC(=N)N)C(=O)N[C@H](CCCCN)C(=O)N[C@H](CCCCN)C(=O)N[C@H](CCCNC(=N)N)C(N)=O)[C@H](C)CC [KSH9, kwllwiglrkkr] (H-[dK](Hexanoyl)[dW][dL][dL][dW][dI]G[dL][dR][dK][dK][dR]-NH2; N-terminus assumed)",MIC MRPA (P. aeruginosa) CCARM 2180,[1],10 µM
same,MIC MRAB (A. baumannii) ATCC BAA 1605,[2],5 µM
same,MIC MRSA (S. aureus) KCCM 40510,[3],1.25 µM
same,MIC VRE (E. faecalis) ATCC 51575,[4],1.25 µM
